This test deals with Pseudomonas fluorescens. The test can be described thus: Determination of the minimum inhibitory concentration (MIC) against Pseudomonas fluorescens. Format: cell-based. The settings on record: for MIC: Pseudomonas fluorescens, read-out: MIC value against Pseudomonas fluorescens. The text has this: The observed synergism of the active compound mixtures, claimed in the present application, consisting of o-phenylphenol (OPP) and other bactericides can be determined by the following mathematical equation (see F. C. Kull, P. C. Elisman, H. D. Sylwestrowicz and P. K. Mayer, Appl. Microbiol. 9, 538 (1960):
[formula] where • Qa=the amount of component A in the active compound mixture which achieves the desired effect, i.e. no microbial growth. • QA=the amount of component A which, when used on its own, suppresses the growth of the microorganisms. • Qb=the amount of component B in the active compound mixture which suppresses the growth of the microorganisms. • Qb=the amount of component B which, when used on its own, suppresses the growth of the microorganisms.
A synergistic index of <1 indicates a synergistic effect for the active compound mixture.
Determination of the Minimum Inhibitory Concentration (MIC) of Compositions According to the Invention Against Pseudomonas fluerescens

The mark [1] stands for this setting: Example 2, OPP/Tektamer 38, weight ratios.

Read-outs that look alike come from different tables or passages of the source.

One may read the MIC as the smallest concentration in the dilution series that meets the test's criterion for growth inhibition. In the case of `O=[N+]([O-])C(Br)(CO)CO` [BNPD, 2-bromo-2-nitro-1,3-propanediol], the MIC (Example 1, OPP/BNPD (bronopol), weight ratios) was 35 µg/mL. Consider `Cn1sccc1=O` [MIT, 2-methyl-2H-isothiazol-3-one], for which the MIC was found to be 30 µg/mL. Turning to `Oc1ccccc1-c1ccccc1` [OPP, o-phenylphenol], the MIC amounted to 500 µg/mL. Also, under setting [1], the “MIC value against Pseudomonas fluorescens” value turned out to be 500 mg/L. In addition, for the setting “Example 3, OPP/MIT, weight ratios”, the “MIC value against Pseudomonas fluorescens” value amounted to 500 mg/L.

Consider `N#CCCC(Br)(C#N)CBr` (stereo not drawn) [Tektamer 38, 1,2-dibromo-2,4-dicyanobutane], for which the MIC under setting [1] was determined as 100 µg/mL.
